# Assay results reported in PMC8159961, “Exploring protein hotspots by optimized fragment pharmacophores” (Nature Communications, 2021).
# Experiments:
# [1] = biological target: T1, human 5-HT1A receptor (Homo sapiens, UniProt P08908); assay: GPCR radioligand binding assay, [3H]-8-OH-DPAT displacement, HEK293 membranes; details: for %inh 5-HT1A average: average of exp_1 and exp_2; for %inh 5-HT1A corrected*: average, values below 0 and above 100% were set as 0 and 100; for %inh 5-HT1A exp_1: replicate exp_1; for %inh 5-HT1A exp_2: replicate exp_2
# T1 construct: expressed in transfected cells
# T1 sequence (P08908 1-422): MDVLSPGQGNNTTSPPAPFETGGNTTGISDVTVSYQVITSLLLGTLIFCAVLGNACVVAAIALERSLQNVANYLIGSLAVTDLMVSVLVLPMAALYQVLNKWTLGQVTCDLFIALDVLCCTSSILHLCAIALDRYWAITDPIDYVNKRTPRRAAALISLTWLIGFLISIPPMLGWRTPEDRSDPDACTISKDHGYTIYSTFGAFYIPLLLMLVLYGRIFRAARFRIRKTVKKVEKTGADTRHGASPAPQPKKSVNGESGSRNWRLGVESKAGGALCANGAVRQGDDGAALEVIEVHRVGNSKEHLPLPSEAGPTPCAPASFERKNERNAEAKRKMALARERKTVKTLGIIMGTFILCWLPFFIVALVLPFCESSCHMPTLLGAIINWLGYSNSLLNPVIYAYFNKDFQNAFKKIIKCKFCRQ
# [2] = biological target: T2, human 5-HT6 receptor (Homo sapiens, UniProt P50406); assay: GPCR radioligand binding assay, [3H]-LSD displacement, HEK293 membranes; details: for 5-HT6 % Inhibition by plate position: 10 µM; for %inh 5-HT6 average: average of exp_1 and exp_2; for %inh 5-HT6 corrected*: average, values below 0 and above 100% were set as 0 and 100; for %inh 5-HT6 exp_1: replicate exp_1; for %inh 5-HT6 exp_2: replicate exp_2
# T2 construct: expressed in transfected cells
# T2 sequence (P50406 whole entry): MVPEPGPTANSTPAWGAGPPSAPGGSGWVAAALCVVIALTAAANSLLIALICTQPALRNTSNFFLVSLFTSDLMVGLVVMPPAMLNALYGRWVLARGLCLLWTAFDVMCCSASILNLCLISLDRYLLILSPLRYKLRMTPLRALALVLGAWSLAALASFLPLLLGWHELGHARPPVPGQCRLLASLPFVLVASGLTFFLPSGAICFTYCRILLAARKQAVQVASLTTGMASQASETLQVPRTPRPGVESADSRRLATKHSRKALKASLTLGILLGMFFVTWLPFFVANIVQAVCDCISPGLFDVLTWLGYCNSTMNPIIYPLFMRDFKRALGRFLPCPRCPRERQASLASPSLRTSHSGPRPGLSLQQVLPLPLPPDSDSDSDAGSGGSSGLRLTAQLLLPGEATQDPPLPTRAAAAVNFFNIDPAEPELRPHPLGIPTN
# [3] = biological target: T3, human 5-HT7b receptor (Homo sapiens, UniProt P34969); assay: GPCR radioligand binding assay, [3H]-5-CT displacement, HEK293 membranes; details: for 5-HT7 % Inhibition by plate position: 10 µM; for %inh 5-HT7 exp_1: replicate exp_1; for %inh 5-HT7 exp_2: replicate exp_2; for %inh 5-HT7 average: average of exp_1 and exp_2
# T3 construct: expressed in transfected cells
# T3 sequence (P34969 1-432): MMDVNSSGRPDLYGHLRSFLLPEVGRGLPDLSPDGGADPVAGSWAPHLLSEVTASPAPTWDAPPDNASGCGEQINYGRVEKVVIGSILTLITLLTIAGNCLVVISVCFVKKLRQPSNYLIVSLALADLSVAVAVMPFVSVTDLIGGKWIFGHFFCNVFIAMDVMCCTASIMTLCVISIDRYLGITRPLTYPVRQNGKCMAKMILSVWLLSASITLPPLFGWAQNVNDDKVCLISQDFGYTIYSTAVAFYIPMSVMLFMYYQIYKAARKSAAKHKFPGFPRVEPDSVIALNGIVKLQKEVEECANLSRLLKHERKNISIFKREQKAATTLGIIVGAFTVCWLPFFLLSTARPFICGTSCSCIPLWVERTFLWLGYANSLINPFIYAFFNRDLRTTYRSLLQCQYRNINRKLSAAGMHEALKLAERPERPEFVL
compound,measurement,setting,value
Cn1nc(C(F)(F)F)cc1O [H6],%inh 5-HT1A average,[1],21%
same,%inh 5-HT1A corrected*,[1],21%
same,%inh 5-HT1A exp_1,[1],21%
same,%inh 5-HT1A exp_2,[1],21%
same,5-HT6 % Inhibition by plate position,[2],0%
same,%inh 5-HT6 average,[2],-24%
same,%inh 5-HT6 corrected*,[2],0%
same,%inh 5-HT6 exp_1,[2],-16%
same,%inh 5-HT6 exp_2,[2],-31%
same,5-HT7 % Inhibition by plate position,[3],9%
same,%inh 5-HT7 exp_1,[3],4%
same,%inh 5-HT7 exp_2,[3],14%
O=C1CCC(=O)N(c2ccccc2)N1 [H7],%inh 5-HT1A average,[1],6%
same,%inh 5-HT1A corrected*,[1],6%
same,%inh 5-HT1A exp_1,[1],7%
same,%inh 5-HT1A exp_2,[1],5.53%
same,5-HT6 % Inhibition by plate position,[2],22%
same,%inh 5-HT6 average,[2],22%
same,%inh 5-HT6 corrected*,[2],22%
same,%inh 5-HT6 exp_1,[2],24%
same,%inh 5-HT6 exp_2,[2],20%
same,5-HT7 % Inhibition by plate position,[3],24%
same,%inh 5-HT7 exp_1,[3],27%
same,%inh 5-HT7 exp_2,[3],21%
O=C1CC(CSc2ccc(Cl)cc2)=NN1 [H8],5-HT1A % Inhibition by plate position,[1]; 10 µM,0%
same,%inh 5-HT1A average,[1],-0.353%
same,%inh 5-HT1A exp_1,[1],-4%
same,%inh 5-HT1A exp_2,[1],3.38%
same,5-HT6 % Inhibition by plate position,[2],12%
same,%inh 5-HT6 average,[2],12%
same,%inh 5-HT6 corrected*,[2],12%
same,%inh 5-HT6 exp_1,[2],9%
same,%inh 5-HT6 exp_2,[2],14%
same,5-HT7 % Inhibition by plate position,[3],0%
same,%inh 5-HT7 average,[3],-7%
same,%inh 5-HT7 exp_1,[3],-1%
same,%inh 5-HT7 exp_2,[3],-14%
O=C(c1ccccc1)N1CCC(CO)CC1 [H9],%inh 5-HT1A average,[1],11%
same,%inh 5-HT1A corrected*,[1],11%
same,%inh 5-HT1A exp_1,[1],15%
same,%inh 5-HT1A exp_2,[1],7%
same,5-HT6 % Inhibition by plate position,[2],32%
same,%inh 5-HT6 average,[2],32%
same,%inh 5-HT6 corrected*,[2],32%
same,%inh 5-HT6 exp_1,[2],29%
same,%inh 5-HT6 exp_2,[2],36%
same,5-HT7 % Inhibition by plate position,[3],12%
same,%inh 5-HT7 exp_1,[3],11%
same,%inh 5-HT7 exp_2,[3],13%
O=C1CSC(Nc2ccc(F)cc2)=N1 [H10],%inh 5-HT1A average,[1],12%
same,%inh 5-HT1A corrected*,[1],12%
same,%inh 5-HT1A exp_1,[1],10%
same,%inh 5-HT1A exp_2,[1],15%
same,5-HT6 % Inhibition by plate position,[2],36%
same,%inh 5-HT6 average,[2],36%
same,%inh 5-HT6 corrected*,[2],36%
same,%inh 5-HT6 exp_1,[2],37%
same,%inh 5-HT6 exp_2,[2],35%
same,5-HT7 % Inhibition by plate position,[3],0%
same,%inh 5-HT7 average,[3],-3.55%
same,%inh 5-HT7 exp_1,[3],3.25%
same,%inh 5-HT7 exp_2,[3],-10%
Cc1ccc(CCNc2ccccc2)cn1 [H11],%inh 5-HT1A average,[1],5%
same,%inh 5-HT1A corrected*,[1],5%
same,%inh 5-HT1A exp_1,[1],11%
same,%inh 5-HT1A exp_2,[1],-0.501%
same,5-HT6 % Inhibition by plate position,[2],0%
same,%inh 5-HT6 average,[2],-0.844%
same,%inh 5-HT6 corrected*,[2],0%
same,%inh 5-HT6 exp_1,[2],7%
same,%inh 5-HT6 exp_2,[2],-9%
same,5-HT7 % Inhibition by plate position,[3],0%
same,%inh 5-HT7 average,[3],-0.222%
same,%inh 5-HT7 exp_1,[3],-13%
same,%inh 5-HT7 exp_2,[3],12%
